Measurements: US20180327367A1, “MACROCYCLIC BROAD SPECTRUM ANTIBIOTICS” (priority 2015, published 2018)
pIC50: −log10 of the molar value. Values after ≈ are worked out from the molar mass of the structure shown. Like-named read-outs stand apart in the source and are kept apart here.

How the values were obtained:
[1] = system: Methicillin Resistant Staphylococcus aureus strain USA 300, NRS384; assay: Minimum inhibitory concentration, broth micro-dilution (CLSI), S. aureus; format: cell-based; conditions: Staphylococcus aureus, MRSA / NRS 384 / USA300, 22 h, 35° C., 22 hours
Outline: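 Colonies grown 20 hours at 35° C were suspended in cation-adjusted Mueller Hinton Broth with 0.002% Tween-80. Cells were then added to 2-fold compound dilutions starting at 4 or 0.5 μg/mL, at OD600 0.0005.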

[2] = system: Escherichia coli MC4100 harboring the IMP4213 (E. coli IMP); assay: microbe, parasite or virus in culture; format: cell-based; conditions: Escherichia coli, 22 h, read-out: MIC (μg/mL) E. coli IMP, E. coli MC4100 IMP4213, increased outer-membrane permeability; 35° C., 22 hours
Outline: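 Broth micro-dilution per CLSI in cation-adjusted Mueller Hinton Broth with 0.002% Tween-80; E. coli MC4100 carries IMP4213, raising outer-membrane permeability. Compounds tested as 2-fold serial dilutions (10 concentrations) from 4 μg/mL (protocol 2) or 0.5 μg/mL (protocol 3); inoculum OD600 0.0005, 35° C for 22 hours.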

[3] = system: Escherichia coli ATCC 25922; assay: Minimum inhibitory concentration, broth micro-dilution (CLSI), E. coli; format: cell-based; conditions: Escherichia coli, ATCC25922, 22 h, 35° C., 22 hours
[4] = target: T1, SpsB (Staphylococcus aureus signal peptidase) (Staphylococcus aureus, UniProt P0A070); assay: cell-based; format: biochemical; conditions: SpsB IC50, whole-cell S. aureus (USA300 background, overexpressing SpsB) as SpsB source; fluorogenic peptide substrate, kinetic read 30 min
T1 construct: This assay uses a suspension of Staphylococcus aureus cells as a source of SpsB instead of recombinant SpsB protein; endogenous in cells; host or cells: S. aureus, USA300 background, overexpressing SpsB (whole-cell suspension from frozen pellets)
Outline: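 Whole S. aureus cells (USA300, overexpressing SpsB) in PBS with MgCl2, CaCl2 and 0.1% Tween-80 served as enzyme source, mixed with 20 μM stock of (Dabcyl)βAla-KPAKAAE(Edans) substrate before use. Fluorescence (ex 340/em 490 nm) read kinetically over 30 min. IC50 from reaction rate versus 11-point inhibitor concentration.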

[5] = read-out: MIC (μg/mL) S. aureus, MRSA USA 300 NRS384
[6] = read-out: MIC (μg/mL) E. coli, E. coli ATCC 25922
[7] = MRSA USA 300 NRS384, read-out: MIC (μg/mL) S. aureus
[8] = E. coli ATCC 25922, read-out: MIC (μg/mL) E. coli

T1 sequence (P0A070 whole entry): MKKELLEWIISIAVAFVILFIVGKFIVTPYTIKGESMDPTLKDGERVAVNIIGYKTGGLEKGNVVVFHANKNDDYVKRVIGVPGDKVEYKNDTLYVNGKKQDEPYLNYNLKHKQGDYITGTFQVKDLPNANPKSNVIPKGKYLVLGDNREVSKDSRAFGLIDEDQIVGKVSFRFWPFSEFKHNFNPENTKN

| SMILES | MIC [1, 5] [µg/mL] | MIC [2] [µg/mL] | MIC [3, 6] [µg/mL] | pIC50 [4] | MIC [1, 7] [µg/mL] | MIC [3, 8] [µg/mL] |
| --- | --- | --- | --- | --- | --- | --- |
| CCCCCCCCC(F)C(=O)NC(CO)C(=O)N(C)C1C(=O)NC(C)C(=O)NC(C(=O)NCC#N)Cc2ccc(OCCN)c(c2)-c2cc1ccc2OCCN (single isomer, unassigned) [Compound 394-P1] | 1 (≈ 1.25 µM) | 0.25 (≈ 0.314 µM) | > 64 | 8.41 | – | – |
| CCCCCc1ccc(C(=O)N[C@@H](CCN)C(=O)N(C)[C@@H]2C(=O)N[C@@H](C)C(=O)N[C@H](C(=O)NCC#N)Cc3ccc(OCCN)c(c3)-c3cc2ccc3OCCN)c(C2CC2)c1 [Compound 229] | – | 0.016 (≈ 0.0188 µM) | – | 9.04 | 0.047 (≈ 0.0552 µM) | 1.5 (≈ 1.76 µM) |
| Cc1nc(-c2ccc(C(F)(F)F)cc2)ncc1C(=O)N[C@@H](CCN)C(=O)N(C)[C@@H]1C(=O)N[C@@H](C)C(=O)N[C@H](C(=O)NCC#N)Cc2ccc(OCCN)c(c2)-c2cc1ccc2OCCN [Compound 171] | – | 0.0078 (≈ 0.00865 µM) | – | 9.14 | 0.094 (≈ 0.104 µM) | 0.5 (≈ 0.554 µM) |
| C[C@@H]1NC(=O)[C@@H](N(C)C(=O)[C@H](CO)NC(=O)c2cnc(-c3ccc(Cl)cc3)nc2)c2ccc(OCCN)c(c2)-c2cc(ccc2OCCN)C[C@@H](C(=O)NCC#N)NC1=O [Compound 234] | 1 (≈ 1.19 µM) | 0.25 (≈ 0.297 µM) | 32 (≈ 38 µM) | 8.41 | – | – |
| CCCCCCCCCCCCCC(=O)N[C@@H](CCN)C(=O)N(C)[C@@H]1C(=O)N[C@@H](C)C(=O)N[C@H](C(=O)NCC#N)Cc2ccc(OC)c(c2)-c2cc1ccc2OCCN [Compound 326] | – | 0.016 (≈ 0.0195 µM) | – | 9.01 | 0.19 (≈ 0.232 µM) | 1 (≈ 1.22 µM) |
| Cc1cc(OCC(C)(C)C)ccc1C(=O)N[C@@H](CCN)C(=O)N(C)[C@@H]1C(=O)N[C@@H](C)C(=O)N[C@H](C(=O)NCC#N)Cc2ccc(OCCN)c(c2)-c2cc1ccc2OCCN [Compound 280] | – | 0.027 (≈ 0.0321 µM) | – | 8.70 | 0.13 (≈ 0.154 µM) | 0.63 (≈ 0.748 µM) |
| Cc1cc(C2CC2)ccc1C(=O)N[C@@H](CCN)C(=O)N(C)[C@@H]1C(=O)N[C@@H](C)C(=O)N[C@H](C(=O)NCC#N)Cc2ccc(OCCN)c(c2)-c2cc1ccc2OCCN [Compound 216] | – | 0.25 (≈ 0.314 µM) | – | 8.48 | 1 (≈ 1.26 µM) | 8 (≈ 10.1 µM) |
| Cc1nc(-c2ccc(C(C)C)cc2)ncc1C(=O)N[C@@H](CCN)C(=O)N(C)[C@@H]1C(=O)N[C@@H](C)C(=O)N[C@H](C(=O)NCC#N)Cc2ccc(OCCN)c(c2)-c2cc1ccc2OCCN [Compound 160] | – | 0.0039 (≈ 0.00445 µM) | – | 9.18 | 0.047 (≈ 0.0537 µM) | 0.13 (≈ 0.148 µM) |
| CCCCCCCCc1ccc(C(=O)N[C@@H](CCN)C(=O)N(C)[C@@H]2C(=O)N[C@@H](C)C(=O)N[C@H](C(=O)NCC#N)Cc3ccc(OCCN)c(c3)-c3cc2ccc3OCCN)c(C(F)(F)F)c1 [Compound 192] | – | 0.012 (≈ 0.013 µM) | – | 9.05 | 0.063 (≈ 0.0683 µM) | 0.25 (≈ 0.271 µM) |
| Cc1cc(-c2cnc(CC(C)C)cn2)ccc1C(=O)N[C@@H](CCN)C(=O)N(C)[C@@H]1C(=O)N[C@@H](C)C(=O)N[C@H](C(=O)NCC#N)Cc2ccc(OCCN)c(c2)-c2cc1ccc2OCCN [Compound 178] | – | 0.039 (≈ 0.0438 µM) | – | 9.05 | 0.25 (≈ 0.281 µM) | 1.5 (≈ 1.69 µM) |
| CCCCCCCOc1ccc(C(=O)N[C@@H](CCN)C(=O)N(C)[C@@H]2C(=O)N[C@@H](C)C(=O)N[C@H](C(=O)NCC#N)Cc3ccc(OCCN)c(c3)-c3cc2ccc3OCCN)c(C)c1 [Compound 268] | – | < 0.0039 | – | 9.07 | 0.035 (≈ 0.0402 µM) | 0.22 (≈ 0.253 µM) |
| CCCCCCCCCCCCCC(=O)N(C)[C@@H]1C(=O)N[C@@H](C)C(=O)N[C@H](C(=O)NCC#N)Cc2ccc(OCCN)c(c2)-c2cc1ccc2OCCN [Compound 475] | – | 0.5 (≈ 0.668 µM) | – | 7.74 | 1 (≈ 1.34 µM) | 6 (≈ 8.02 µM) |
| Cc1cc(C2CCCC2)ccc1C(=O)N[C@@H](CCN)C(=O)N(C)[C@@H]1C(=O)N[C@@H](C)C(=O)N[C@H](C(=O)NCC#N)Cc2ccc(OCCN)c(c2)-c2cc1ccc2OCCN [Compound 215] | – | 0.039 (≈ 0.0473 µM) | – | 9.01 | 0.19 (≈ 0.231 µM) | 1.8 (≈ 2.18 µM) |
| CCCCCCCCCCNCCC(=O)N(C)[C@@H]1C(=O)N[C@@H](C)C(=O)N[C@H](C(=O)NCC#N)Cc2ccc(OCCN)c(c2)-c2cc1ccc2OCCN [Compound 131] | – | 1.8 (≈ 2.4 µM) | – | 9.13 | 0.047 (≈ 0.0628 µM) | 64 (≈ 85.5 µM) |
| CCCCCCCCCCCC(=O)N[C@@H](CO)C(=O)N(C)[C@@H]1C(=O)N[C@@H](C)C(=O)N[C@H](C(=O)N[C@H](C#N)C2CC2)Cc2ccc(OCCN)c(c2)-c2cc1ccc2OCCN [Compound 420] | – | 1 (≈ 1.18 µM) | – | 8.08 | 4 (≈ 4.72 µM) | 24 (≈ 28.3 µM) |
| CCCCCCCCCCCC(=O)N[C@@H](CCn1cncn1)C(=O)N(C)[C@@H]1C(=O)N[C@@H](C)C(=O)N[C@H](C(=O)NCC#N)Cc2ccc(OCCN)c(c2)-c2cc1ccc2OCCN [Compound 454] | – | 0.13 (≈ 0.149 µM) | – | 8.74 | 0.13 (≈ 0.149 µM) | 32 (≈ 36.7 µM) |
| C[C@@H]1NC(=O)[C@@H](N(C)C(=O)[C@H](CCN)NC(=O)c2ccc(C#Cc3ccccc3)cc2Cl)c2ccc(OCCN)c(c2)-c2cc(ccc2OCCN)C[C@@H](C(=O)NCC#N)NC1=O [Compound 424] | 0.063 (≈ 0.0719 µM) | 0.016 (≈ 0.0183 µM) | 0.56 (≈ 0.639 µM) | 9.12 | – | – |
| CCCCCCCCCCCCCC(=O)N[C@@H](CCN)C(=O)N(C)[C@@H]1C(=O)N[C@@H](C)C(=O)N[C@H](C(=O)NCC#N)Cc2ccc(OCCN)c(c2)-c2cc1ccc2OCCO [Compound 329] | – | 0.0078 (≈ 0.00919 µM) | – | 9.15 | 0.063 (≈ 0.0742 µM) | 0.5 (≈ 0.589 µM) |
| CCCCCCCOc1ccc(C(=O)N[C@@H](CCCN)C(=O)N(C)[C@@H]2C(=O)N[C@@H](C)C(=O)N[C@H](C(=O)NCC#N)Cc3ccc(OCCN)c(c3)-c3cc2ccc3OCCN)c(Cl)c1 [Compound 282] | – | 0.0078 (≈ 0.00862 µM) | – | 9.15 | 0.016 (≈ 0.0177 µM) | 0.25 (≈ 0.276 µM) |
| CCc1ccc(-c2ncc(C(=O)N[C@@H](CCN)C(=O)N(C)[C@@H]3C(=O)N[C@@H](C)C(=O)N[C@H](C(=O)NCC#N)Cc4ccc(OCCN)c(c4)-c4cc3ccc4OCCN)c(C)n2)cc1 [Compound 155] | – | 0.0098 (≈ 0.0114 µM) | – | 8.60 | 0.13 (≈ 0.151 µM) | 0.44 (≈ 0.51 µM) |
| CCCCCCCCc1ccc(C(=O)N[C@@H](CCN)C(=O)N(C)[C@@H]2C(=O)N[C@@H](C)C(=O)N[C@H](C(=O)NCC#N)Cc3ccc(OCCN)c(c3)-c3cc2ccc3OCCN)c(C)c1 [Compound 339] | – | 0.018 (≈ 0.0207 µM) | – | > 9.30 | 0.047 (≈ 0.0541 µM) | 0.13 (≈ 0.15 µM) |
| C[C@@H]1NC(=O)[C@@H](N(C)C(=O)CCNCc2ccc(-c3ccc(Cl)cc3)cc2)c2ccc(OCCN)c(c2)-c2cc(ccc2OCCN)C[C@@H](C(=O)NCC#N)NC1=O [Compound 461] | – | 4 (≈ 4.94 µM) | – | 9.13 | 0.063 (≈ 0.0778 µM) | > 64 |
| CCCCCCCCc1ccc(C(=O)N[C@@H](CCN)C(=O)N(C)[C@@H]2C(=O)N[C@@H](C)C(=O)N[C@H](C(=O)NCC#N)Cc3ccc(OCCN)c(c3)-c3cc2ccc3OCCN)c(OCC(N)=O)c1 [Compound 407] | – | 0.047 (≈ 0.0507 µM) | – | 8.96 | 0.047 (≈ 0.0507 µM) | 4 (≈ 4.31 µM) |
| CCCCc1ccc(/C=C/C(=O)N[C@@H](CCN)C(=O)N(C)[C@@H]2C(=O)N[C@@H](C)C(=O)N[C@H](C(=O)NCC#N)Cc3ccc(OCCN)c(c3)-c3cc2ccc3OCCN)cc1 [Compound 428] | – | 0.023 (≈ 0.0279 µM) | – | 8.92 | 0.094 (≈ 0.114 µM) | 1 (≈ 1.21 µM) |
